Read-outs that look alike come from different tables or passages of the source.
Experiments:
[1] = system: interior spruce somatic embryos; experiment: Ascorbic acid in nutripriming solution and germination media: germination and growth of interior spruce genotype 4-2809 somatic embryos; type: in vivo, Picea glauca (Moench) Voss x P. engelmannii Parry ex Engelm.
Method: Mature somatic embryos of interior spruce (Picea glauca (Moench) Voss x P. engelmannii Parry ex […].) genotype 4-2809 were desiccated with the HRHT treatment, and then nutriprimed in 3% w/v sucrose m24GMD solutions for 3 days as previously described. The nutripriming solutions were formulated with one of the following three ascorbic acid treatments; 0, 10 uM, 100 uM. The nutriprimed somatic embryos were then sown into germination boxes containing 150 ml vermiculite plus 120 ml of 3% w/v sucrose m24GMD liquid medium. […] Nutriprimed embryos from each ascorbic acid nutripriming treatment were then sown into triplicate boxes of each ascorbic acid-amended germination medium. After sowing, the germination boxes were sealed twice with ParafilmTM. Embryos were germinated and grown for two weeks under 50-70 μmol m^-2s^-1 photosynthetic photon flux of 16-hour photoperiod at an air temperature of 22° C. Then, the germinants were harvested, and measured.

[2] = system: interior spruce somatic embryos; type: in vivo, Picea glauca (Moench) Voss x P. engelmannii Parry ex Engelm.; details: for % with hyperhydricity: in vivo
Source text: The second study assessed the effects adding various osmotica to nutripriming solutions on subsequent germination and development performance. Mature somatic embryos of interior spruce (Picea glauca (Moench) Voss x P. engelmannii Parry ex Engelm.) genotype 23-2672 were desiccated with the HRHT treatment, and then divided into 10 groups of 160 somatic embryos per group. One group was not primed and served as the HRHT control treatment for this study. […] The nutripriming solutions and embryos were placed into 250-ml Kimax® baffled flasks. The nutripriming duration was 72 hrs at temperatures ranging between 20-23° C., and a 24-hr photoperiod of 30 μmol m^−2s^−1 photosynthetic photon flux.
At the completion of the nutripriming step, the nutriprimed embryos from each treatment were divided into 8 groups of 20 embryos and sown by hand onto vermiculite media in Sigma polycarbonate boxes. The liquid media in these germination boxes were either 3% w/v sucrose m24GMD or m24GMD without sucrose. The experiment design was a random complete block design for each media type. Each nutripriming treatment had 4 replicates of 20 embryos in each germination media type. The germination boxes were placed in a germination room and grown for two weeks under 50-70 μmol m^−2s^−1 photosynthetic photon flux of 16-hour photoperiod at an air temperature of 23° C. The germinants were then harvested and assessed for germination rates, hyperhydricity rates, shoot and root length. Germination was defined as germinants having a root longer than 2 mm, and elongated hypercotyl. Hyperhydricity was defined by the thickening of hypercotyl and watery appearance of the germinants, whether germinated or not germinated.

[3] = AA 0 μM in germination media, 10 μM in priming solution
[4] = AA 0 μM in germination media, 100 μM in priming solution
[5] = AA 1 μM in germination media, 0 μM in priming solution
[6] = AA 1 μM in germination media, 10 μM in priming solution
[7] = AA 1 μM in germination media, 100 μM in priming solution
[8] = AA 10 μM in germination media, 0 μM in priming solution
[9] = AA 10 μM in germination media, 10 μM in priming solution
[10] = AA 10 μM in germination media, 100 μM in priming solution
[11] = AA 100 μM in germination media, 0 μM in priming solution
[12] = AA 100 μM in germination media, 10 μM in priming solution
[13] = AA 100 μM in germination media, 100 μM in priming solution
[14] = AA 1000 μM in germination media, 0 μM in priming solution
[15] = AA 1000 μM in germination media, 10 μM in priming solution
[16] = AA 1000 μM in germination media, 100 μM in priming solution
[17] = germination media m24GMD (without sucrose), osmoticant levels as E220
[18] = germination media m24GMD plus 3% sucrose, osmoticant in m24GMD priming solution (w/v): 1% betaine, 1.65% fructose, glucose, mannitol, sorbitol, 3% lactose, maltose, sucrose, 10% PEG 4000, 72 hrs
[19] = germination media m24GMD plus 3% sucrose, osmoticant levels as E220

`O=C1O[C@H]([C@@H](O)CO)C(O)=C1O` [AA, Ascorbic acid] showed a Germination % [1, 3] of 100.0 ± 0.0%, a Root length [1, 3] of 2.59 ± 0.26 cm and a Rooting % [1, 3] of 86.7 ± 3.3%. The Shoot length [1, 3] was 1.86 ± 0.10 cm, the Germination % [1, 4] was 100.0 ± 0.0% and the Root length [1, 4] was 3.56 ± 0.37 cm. The Rooting % [1, 4] was 96.7 ± 3.3%, the Shoot length [1, 4] was 2.07 ± 0.11 cm and the Germination % [1, 5] was 96.7 ± 3.3%. It also gave a Root length [1, 5] of 1.90 ± 0.23 cm, a Rooting % [1, 5] of 85.8 ± 3.0% and a Shoot length [1, 5] of 1.68 ± 0.10 cm. It also gave a Germination % [1, 6] of 100.0 ± 0.0%, a Root length [1, 6] of 2.07 ± 0.22 cm and a Rooting % [1, 6] of 86.7 ± 8.8%. It also gave a Shoot length [1, 6] of 1.83 ± 0.11 cm, a Germination % [1, 7] of 100.0 ± 0.0% and a Rooting % [1, 7] of 90.0 ± 0.0%. It also gave a Shoot length [1, 7] of 1.79 ± 0.09 cm, a Germination % [1, 8] of 97.5 ± 2.5% and a Root length [1, 8] of 2.46 ± 0.30 cm. It also gave a Rooting % [1, 8] of 87.5 ± 6.3%, a Shoot length [1, 8] of 1.84 ± 0.09 cm and a Germination % [1, 9] of 96.7 ± 3.3%. The Root length [1, 9] was 2.82 ± 0.36 cm, the Rooting % [1, 9] was 86.7 ± 3.3% and the Shoot length [1, 9] was 1.97 ± 0.19 cm. For the same molecule, the Germination % [1, 10] was 100.0 ± 0.0%, the Root length [1, 10] was 3.24 ± 0.32 cm and the Rooting % [1, 10] was 96.7 ± 3.3%. For the same molecule, the Shoot length [1, 10] was 2.33 ± 0.11 cm, the Germination % [1, 11] was 93.3 ± 3.3% and the Root length [1, 11] was 2.50 ± 0.33 cm. For the same molecule, the Rooting % [1, 11] was 63.3 ± 8.8%, the Shoot length [1, 11] was 1.81 ± 0.09 cm and the Germination % [1, 12] was 100.0 ± 0.0%. For the same molecule, the Root length [1, 12] was 3.18 ± 0.42 cm, the Rooting % [1, 12] was 78.2% and the Shoot length [1, 12] was 2.02 ± 0.11 cm. It also gave a Germination % [1, 13] of 100.0 ± 0.0%, a Root length [1, 13] of 3.61 ± 0.39 cm and a Rooting % [1, 13] of 73.0%. The Shoot length [1, 13] was 2.12 ± 0.11 cm, the Germination % [1, 14] was 100.0 ± 0.0% and the Root length [1, 14] was 2.11 ± 0.25 cm. For the same molecule, the Rooting % [1, 14] was 90.0 ± 0.0%, the Shoot length [1, 14] was 1.79 ± 0.14 cm and the Germination % [1, 15] was 100.0 ± 0.0%. It also gave a Root length [1, 15] of 2.55 ± 0.20 cm, a Rooting % [1, 15] of 95.0 ± 5.0% and a Shoot length [1, 15] of 2.00 ± 0.09 cm. For the same molecule, the Germination % [1, 16] was 100.0 ± 0.0%, the Root length [1, 16] was 2.19 ± 0.26 cm and the Rooting % [1, 16] was 90.0 ± 5.8%. The Shoot length [1, 16] was 1.75 ± 0.15 cm.

With `C[N+](C)(C)CC(=O)O` [betaine] the Germination % [2, 17] was 45.0 ± 26.3%, the Root length [2, 17] was 0.4 ± 0.2 mm and the Shoot length [2, 17] was 11.2 ± 0.3 mm. The Germination % [2, 18] was 100%, the Root length [2, 19] was 12.2 ± 0.8 mm and the Shoot length [2, 19] was 14.2 ± 0.3 mm. For the same molecule, the “% with hyperhydricity” value [2] was 76.3 ± 19.1%.

`O=C(CO)[C@@H](O)[C@H](O)[C@H](O)CO` [fructose] showed a Germination % [2, 17] of 87.5 ± 7.8%, a Root length [2, 17] of 2.1 ± 0.1 mm and a Shoot length [2, 17] of 10.0 ± 0.3 mm. It also gave a Germination % [2, 18] of 100%, a Root length [2, 19] of 12.2 ± 0.8 mm and a Shoot length [2, 19] of 13.5 ± 0.3 mm. The “% with hyperhydricity” value [2] was 86.3 ± 9.4%.

`OC[C@H]1O[C@@H](O[C@H]2[C@H](O)[C@@H](O)C(O)O[C@@H]2CO)[C@H](O)[C@@H](O)[C@H]1O` (some centres unmarked) [lactose] showed a Germination % [2, 17] of 27.6 ± 24.3%, a Root length [2, 17] of 0.3 ± 0.1 mm and a Shoot length [2, 17] of 11.5 ± 0.2 mm. It also gave a Germination % [2, 18] of 100%, a Root length [2, 19] of 12.4 ± 0.8 mm and a Shoot length [2, 19] of 15.5 ± 0.3 mm. For the same molecule, the “% with hyperhydricity” value [2] was 100%.

In the case of `OC[C@H]1O[C@H](O[C@H]2[C@H](O)[C@@H](O)[C@H](O)O[C@@H]2CO)[C@H](O)[C@@H](O)[C@@H]1O` [maltose], the Germination % [2, 17] is reported as 0%, the Root length [2, 17] is reported as 0.8 ± 0.1 mm and the Shoot length [2, 17] is reported as 11.2 ± 0.3 mm. For the same molecule, the Germination % [2, 18] was 98.8%, the Root length [2, 19] was 11.5 ± 0.8 mm and the Shoot length [2, 19] was 14.2 ± 0.3 mm. The “% with hyperhydricity” value [2] was 100%.

Molecule `OC[C@@H](O)[C@@H](O)[C@H](O)[C@H](O)CO` [mannitol] has a Germination % [2, 17] of 24.6 ± 12.7%, a Root length [2, 17] of 0.3 ± 0.1 mm and a Shoot length [2, 17] of 10.0 ± 0.3 mm. It also gave a Germination % [2, 18] of 100%, a Root length [2, 19] of 12.0 ± 0.5 mm and a Shoot length [2, 19] of 13.6 ± 0.3 mm. For the same molecule, the “% with hyperhydricity” value [2] was 93.5 ± 5.0%.

`OC[C@@H](O)[C@@H](O)[C@H](O)[C@@H](O)CO` [sorbitol] was tested, and the Germination % [2, 17] was 5.0 ± 5.0%, the Root length [2, 17] was 0.4 ± 0.1 mm and the Shoot length [2, 17] was 10.7 ± 0.3 mm. It also gave a Germination % [2, 18] of 100%, a Root length [2, 19] of 15.5 ± 1.0 mm and a Shoot length [2, 19] of 14.5 ± 0.4 mm. For the same molecule, the “% with hyperhydricity” value [2] was 92.6 ± 6.0%.

With “polyethylene glycol (PEG) 4000 [PEG 4000]” the “% with hyperhydricity” value [2] was 97.5 ± 4.3%.

— patent publication US6689609B1, “Enhancing germination of plant somatic embryos by priming” (Cellfor Inc., priority 1999, dated 2004)
